Values after ≈ are worked out from the molar mass of the structure shown.
Legend:
[1] = tested on: tested strains (Gram-positive and Gram-negative bacteria); experiment: MIC, summary over the tested strains; format: cell-based
Protocol: (§1) MIC was determined using the broth microdilution method in accordance with Clinical and Laboratory Standards Institute guidelines. All compounds were dissolved in dimethyl sulfoxide (DMSO; final DMSO concentration of less than 0.5%) and sterile double-distilled water and then diluted with Mueller-Hinton broth (MHB). Each compound’s stock solution was serially twofold diluted, resulting in concentrations ranging from 0.39 to 100 μg/ml, and thereafter added to sterile 96-well plates. All bacterial cell suspensions were adjusted in MHB to attain a starting inoculum of 1 × 10^6 cells/ml. A total of 100 μl volume of the bacterial suspension was then added to each well. Following a 24-hour incubation at 37°C, the optical density at 600 nm (OD600) was confirmed by measuring absorbance at 600 nm with a BioTek microplate reader. […] All measurements were repeated three times with duplicates each time.

K. pneumoniae = experiment: MIC, summary over K. pneumoniae strains; format: cell-based; conditions: Klebsiella pneumoniae, two strains; read-out: MICs against K. pneumoniae
Protocol: as §1

P. aeruginosa ATCC 9027 = experiment: Time-kill kinetic assay; format: cell-based, Pseudomonas aeruginosa; conditions: 5× MIC
Protocol: The bacterial cultures were standardized to obtain an initial density that ranged from 10^5 to 10^6 cells/ml. The cultures were incubated in a shaking bath at 37°C. Viable counts were determined at 0-, 0.5-, 1.0-, 2.0-, 4.0-, 8.0-, and 24-hour intervals by spotting 10-μl aliquots of serially 10-fold diluted cultures onto Mueller-Hinton agar (MHA) plates. After incubation at 37°C for 24 hours, the bactericidal activity, defined as the ability to reduce the initial inoculum by 3 log10 CFU/ml, was examined for each tested concentration over time. All measurements were repeated three times with duplicates each time.

S. aureus ATCC 29213 = experiment: SYTOX Green uptake assay; format: cell-based, Staphylococcus aureus; conditions: up to 8× MIC
Protocol: The SYTOX Green uptake was measured to explore the inner membrane permeability. The overnight bacteria culture was centrifuged and resuspended in sterile PBS to obtain an OD600 of 0.2. SYTOX Green dye was added to a final concentration of 0.3 μM and incubated for 20 min without being exposed to the light. Fluorescence was measured at excitation and emission wavelengths of 504 and 523 nm, respectively. […] The changes in fluorescence intensity were continuously monitored for 1 hour. All measurements were repeated three times with duplicates each time.

LPS = experiment: BODIPY-TR-cadaverine displacement assay; format: binding
Protocol: (§2) The percentage of displacement from LTA-BODIPY/LPS-BODIPY by test compounds was determined according to BODIPY cadaverine displacement assay. […] The mixture was incubated in the dark for 30 min, and then the fluorescence was monitored at an excitation wavelength of 580 nm and an emission wavelength of 620 nm using a BioTek multidetector microplate reader. The percentage of displacement from LTA-BODIPY/LPS-BODIPY was calculated by the following formula: % Displacement = (FS − Fmin)/(Fmax − Fmin) × 100. Where FS is the fluorescence intensity observed at a given test compound concentration, Fmin is the fluorescence intensity of BODIPY with LTA/LPS and DMSO, and Fmax is the fluorescence intensity of BODIPY with only DMSO. All tests were carried out at least twice and with biological replicates.

LTA = experiment: BODIPY-TR-cadaverine displacement assay; format: binding
Protocol: as §2

E. coli DNA gyrase = target: T1, E. coli DNA gyrase (Escherichia coli, UniProt P0AES4+P0AES6); experiment: DNA gyrase supercoiling inhibition assay; format: biochemical
T1 construct: purchased ProFoldin (Worcester, MA)
Protocol: (§3) E. coli topoisomerase enzymes (II and IV) were supplied by ProFoldin (Worcester, MA), and assays were performed according to the manufacturer’s instructions. Briefly, the DNA supercoiling assay was conducted in a volume of 40 μl containing 24 μl of H2O, 4 μl of 10× buffer, 4 μl of 10× relaxed DNA, 4 μl of 10× enzyme, and 4 μl of 10 mM adenosine triphosphate (ATP). Following a 60-min incubation at room temperature, 200 μl of H2O was added to each reaction mixture. Topoisomerase IV decatenation inhibition assay was conducted in a volume of 50 μl containing 38.5 μl of H2O, 5 μl of 10× buffer, 5 μl of 10× concatenated DNA, 0.5 μl of 100× enzyme, and 1 μl of 10 mM ATP. After 60 min of incubation at 37°C, 5 μl of 0.4 M EDTA was added to stop the reaction. […]
(§4) In the supercoiling inhibition assay, the fluorescence intensity was measured using freshly prepared 1× H19 dye, which was prepared by diluting 100× H19 dye with 10 mM tris-HCl and 10 mM NaCl (pH 7.0). […] In the decatenation inhibition assay, the change in fluorescence intensity was monitored using the 1× fluorescence dye after diluting the 20× dye with water. The reaction solution eluted from the column was mixed with 150 μl of 1× fluorescence dye. The fluorescence intensity for both assays was lastly detected at 535 nm using an excitation wavelength of 485 nm. […]

[2] = target: T2, topoisomerase IV from E. coli (Escherichia coli, UniProt P0AFI2+P20083); experiment: Topoisomerase IV decatenation inhibition assay; format: biochemical; conditions: 1× MIC
T2 construct: purchased ProFoldin (Worcester, MA)
Protocol: as §3, §4

[3] = In vivo corneal toxicity, fluorescein staining; set-up: species or system mice; conditions: topical application to murine cornea
Protocol: In addition, the in vivo toxicity assessment of compound XT17 toward murine cornea was conducted through local application using 1% fluorescein sodium solution to stain the cornea.

[4] = for the free guanidine group, not the whole compound; cited from earlier work

T1 sequence (P0AES4 whole entry, one chain of several): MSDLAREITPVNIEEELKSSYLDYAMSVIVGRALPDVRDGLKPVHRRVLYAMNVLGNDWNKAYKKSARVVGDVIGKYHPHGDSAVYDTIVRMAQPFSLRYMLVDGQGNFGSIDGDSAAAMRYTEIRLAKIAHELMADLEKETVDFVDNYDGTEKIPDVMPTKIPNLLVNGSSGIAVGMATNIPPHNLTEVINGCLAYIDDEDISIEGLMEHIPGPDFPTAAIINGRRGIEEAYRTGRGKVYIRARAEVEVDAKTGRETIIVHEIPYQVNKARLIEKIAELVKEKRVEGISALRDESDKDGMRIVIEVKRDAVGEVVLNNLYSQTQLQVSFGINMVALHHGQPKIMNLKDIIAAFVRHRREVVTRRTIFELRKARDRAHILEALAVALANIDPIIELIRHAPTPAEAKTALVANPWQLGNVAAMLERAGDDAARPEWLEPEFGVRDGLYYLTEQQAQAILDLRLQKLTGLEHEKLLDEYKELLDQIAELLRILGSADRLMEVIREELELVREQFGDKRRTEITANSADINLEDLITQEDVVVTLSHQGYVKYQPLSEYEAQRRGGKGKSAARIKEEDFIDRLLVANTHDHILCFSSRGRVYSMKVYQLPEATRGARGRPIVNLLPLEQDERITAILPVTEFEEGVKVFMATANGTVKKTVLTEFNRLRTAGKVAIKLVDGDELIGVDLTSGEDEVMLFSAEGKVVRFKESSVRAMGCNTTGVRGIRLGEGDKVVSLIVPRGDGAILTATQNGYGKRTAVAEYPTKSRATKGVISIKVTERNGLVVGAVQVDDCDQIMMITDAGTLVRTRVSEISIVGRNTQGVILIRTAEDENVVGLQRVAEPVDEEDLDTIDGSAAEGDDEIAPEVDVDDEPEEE
T2 sequence (P20083 whole entry): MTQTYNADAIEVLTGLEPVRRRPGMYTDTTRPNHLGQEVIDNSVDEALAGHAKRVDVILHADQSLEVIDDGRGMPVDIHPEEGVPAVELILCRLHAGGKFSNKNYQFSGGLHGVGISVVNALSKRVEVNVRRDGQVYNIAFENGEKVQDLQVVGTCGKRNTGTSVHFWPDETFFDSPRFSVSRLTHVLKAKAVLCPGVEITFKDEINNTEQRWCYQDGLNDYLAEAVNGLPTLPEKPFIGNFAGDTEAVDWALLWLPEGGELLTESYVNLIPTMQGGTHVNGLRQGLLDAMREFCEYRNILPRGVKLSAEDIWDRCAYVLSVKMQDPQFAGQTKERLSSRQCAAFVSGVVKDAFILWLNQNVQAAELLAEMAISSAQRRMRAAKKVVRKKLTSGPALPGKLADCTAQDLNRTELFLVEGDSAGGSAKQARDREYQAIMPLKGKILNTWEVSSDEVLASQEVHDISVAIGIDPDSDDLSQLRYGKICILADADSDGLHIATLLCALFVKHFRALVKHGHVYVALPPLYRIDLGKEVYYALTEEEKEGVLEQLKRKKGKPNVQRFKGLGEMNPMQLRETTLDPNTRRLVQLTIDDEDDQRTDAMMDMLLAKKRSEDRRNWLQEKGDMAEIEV
T2 sequence (P0AFI2 whole entry): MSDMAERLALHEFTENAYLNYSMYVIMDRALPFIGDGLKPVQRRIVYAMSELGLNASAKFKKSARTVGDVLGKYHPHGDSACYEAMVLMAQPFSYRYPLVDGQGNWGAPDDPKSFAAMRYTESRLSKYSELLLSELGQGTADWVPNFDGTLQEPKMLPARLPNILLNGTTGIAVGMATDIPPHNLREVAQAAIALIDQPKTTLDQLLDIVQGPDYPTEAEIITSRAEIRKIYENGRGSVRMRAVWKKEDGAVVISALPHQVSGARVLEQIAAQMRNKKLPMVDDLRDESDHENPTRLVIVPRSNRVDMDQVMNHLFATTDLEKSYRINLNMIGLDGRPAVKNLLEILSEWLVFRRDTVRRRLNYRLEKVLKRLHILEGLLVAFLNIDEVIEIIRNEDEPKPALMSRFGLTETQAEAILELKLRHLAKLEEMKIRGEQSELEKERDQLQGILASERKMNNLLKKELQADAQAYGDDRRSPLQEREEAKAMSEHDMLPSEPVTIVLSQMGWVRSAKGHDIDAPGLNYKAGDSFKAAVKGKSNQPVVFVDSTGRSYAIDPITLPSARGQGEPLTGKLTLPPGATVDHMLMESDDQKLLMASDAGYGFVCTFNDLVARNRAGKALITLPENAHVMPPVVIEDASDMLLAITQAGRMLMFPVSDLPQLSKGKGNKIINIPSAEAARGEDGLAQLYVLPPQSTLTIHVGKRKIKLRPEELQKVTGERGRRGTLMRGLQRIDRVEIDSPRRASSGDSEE

## CC(C)=CCOc1cc(OCCCNC(=N)N)cc2oc3cc(OCCCNC(=N)N)ccc3c(=O)c12 [XT17]
[1]; guanidine XT17 versus primary amine XT07
  fold increase in antibacterial activity: 8- to 32 fold
[1]; read-out: MICs against the tested strains
  MIC: 0.39 to 3.12 µg/mL (≈ 0.764 to 6.12 µM)
K. pneumoniae
  MIC: 6.25 to 12.5 µg/mL (≈ 12.2 to 24.5 µM)
P. aeruginosa ATCC 9027; 1 hour
  log bacterial load reduction: 3.24 log
P. aeruginosa ATCC 9027; at 24 hours
  bacterial regrowth: no bacterial regrowth was observed
S. aureus ATCC 29213
  SYTOX Green fluorescence intensity (cytoplasmic membrane permeabilization): did not show a notable increase
LPS; 1× MIC
  % Displacement from LPS: 39.22%
LPS; 2× MIC
  % Displacement from LPS: 52.67%
LPS; 4× MIC
  % Displacement from LPS: 69.53%
LPS; 8× MIC
  % Displacement from LPS: 75.50%
LTA; 1× MIC
  % Displacement from LTA: 2.86%
LTA; 2× MIC
  % Displacement from LTA: 14.81%
LTA; 4× MIC
  % Displacement from LTA: 17.88%
LTA; 8× MIC
  % Displacement from LTA: 32.95%
E. coli DNA gyrase; 1× MIC
  Inhibition of DNA gyrase (%): 81.45 ± 1.33%
E. coli DNA gyrase; concentration not stated (Discussion)
  inhibitory effect on bacterial DNA gyrase in vitro: ~ 90%
[2]
  Inhibition of topoisomerase IV (%): 36.93%
[3]
  corneal damage (slit-lamp, fluorescein staining): no notable signs of corneal damage
[4]
  pKa: 12.48

Reference: article PMC11881906, “Development of xanthone derivatives as effective broad-spectrum antimicrobials: Disrupting cell wall and inhibiting DNA synthesis” (Science Advances, 2025)
